Laboratory results from patent publication US8318749B2, “Quinazoline derivatives as NK3 receptor antagonists” (Hoffmann-La Roche Inc., priority 2008, dated 2012).
pKi: −log10 of the molar value.

Tested on: not given
Assay: not given
Conditions: phase II trial; altered behaviour, delusion, hallucinations, extreme emotions, excited motor activity, incoherent speech; cited from earlier work

Structure (SMILES) | activity on positive symptoms of schizophrenia
CC(=O)N(C)C1(c2ccccc2)CCN(CCC[C@]2(c3ccc(Cl)c(Cl)c3)CCCN(C(=O)c3ccccc3)C2)CC1 [SR 142,801, Osanetant] | active

Same assay, conditions: phase II trial; depression, anhedonia, social isolation or memory and attention deficits; cited from earlier work

Structure (SMILES) | activity in the treatment of negative symptoms
CC(=O)N(C)C1(c2ccccc2)CCN(CCC[C@]2(c3ccc(Cl)c(Cl)c3)CCCN(C(=O)c3ccccc3)C2)CC1 [SR 142,801, Osanetant] | inactive

Target: T1, recombinant human NK3 receptor (Homo sapiens, UniProt P29371)
T1 construct: expressed in transfected cells; host or cells: HEK293 cells (transient expression), membrane preparation
T1 sequence (P29371 1-465): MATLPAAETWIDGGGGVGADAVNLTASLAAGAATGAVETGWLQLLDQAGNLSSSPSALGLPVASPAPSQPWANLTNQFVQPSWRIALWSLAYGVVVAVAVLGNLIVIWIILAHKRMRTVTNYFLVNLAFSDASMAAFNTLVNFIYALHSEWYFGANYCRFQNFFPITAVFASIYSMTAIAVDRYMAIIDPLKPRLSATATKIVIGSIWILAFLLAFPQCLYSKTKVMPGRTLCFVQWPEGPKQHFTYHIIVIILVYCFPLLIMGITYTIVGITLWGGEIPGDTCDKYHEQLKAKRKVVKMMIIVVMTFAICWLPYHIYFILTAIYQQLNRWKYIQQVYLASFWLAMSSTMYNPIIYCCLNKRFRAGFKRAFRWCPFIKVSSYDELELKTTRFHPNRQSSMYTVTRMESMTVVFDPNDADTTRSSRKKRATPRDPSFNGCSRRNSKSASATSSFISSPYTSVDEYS
Assay: [3H]SR142801 competition binding assay
Conditions: membrane from HEK293 cells transiently expressing recombinant human NK3 receptor; radioligand [3H]SR142801; 75 min at RT
Method: [^3H]SR142801 Competition Binding Assay
hNK3 receptor binding experiment were performed using [^3H]SR142801 (Catalog No. TRK1035, specific activity: 74.0 Ci/mmol, Amersham, GE Healthcare UK limited, Buckinghamshire, UK) and membrane isolated from HEK293 cells transiently expressing recombinant human NK3 receptor. After thawing, the membrane homogenates were centrifuged at 48,000×g for 10 min at 4° C., the pellets were resuspended in the 50 mM Tris-HCl, 4 mM MnCl2, 1 μM phosphoramidon, 0.1% BSA binding buffer at pH 7.4 to a final assay concentration of 5 μg protein/well. […] At the end of the incubation, membranes were filtered onto unitfilter (96-well white microplate with bonded GF/C filter preincubated 1 h in 0.3% PEI+0.3% BSA, Packard BioScience, Meriden, Conn.) with a Filtermate 196 harvester (Packard BioScience) and washed 4 times with ice-cold 50 mM Tris-HCl, pH 7.4 buffer. Nonspecific binding was measured in the presence of 10 μM SB222200 for both radioligands. The radioactivity on the filter was counted (5 min) on a Packard Top-count microplate scintillation counter with quenching correction after addition of 45 μl of microscint 40 (Canberra Packard S.A., Zürich, Switzerland) and shaking for 1 h. Inhibition curves were fitted according to the Hill equation: y=100/(1+(x/IC50)^nH), where nH=slope factor using Excel-fit 4 software (Microsoft). IC50 values were derived from the inhibition curve and the affinity constant (Ki) values were calculated using the Cheng-Prussoff equation Ki=IC50/(1+[L]/KD) where [L] is the concentration of radioligand and KD is its dissociation constant at the receptor, derived from the saturation isotherm. All experiments were performed in duplicate and the mean±standard error (SEM) of the individual Ki values was calculated.

Structure (SMILES) | pKi
COc1cc2nc(N3CCC(Cc4ccccc4)(C(=O)NCc4ccccc4)CC3)nc(NC3CC3)c2cc1OC [Example 15, 4-Benzyl-1-(4-cyclopropylamino-6,7-dimethoxy-quinazolin-2-yl)-piperidine-4-carboxylic acid benzylamide] | 7.16
O=C(NCc1ccccc1)C1(Cc2ccccc2)CCN(c2nc(O)c3ccc(OC(F)(F)F)cc3n2)CC1 [Example 99, 4-Benzyl-1-(4-hydroxy-7-trifluoromethoxy-quinazolin-2-yl)-piperidine-4-carboxylic acid benzylamide] | 8.31
COc1cc2c(O)nc(N3CCC(Cc4ccccc4)(C(=O)NCc4ccccc4)CC3)nc2cc1OC(C)C [Example 92, 4-Benyzl-1-(4-hydroxy-7-isopropoxy-6-methoxy-quinazolin-2-yl)-piperidine-4-carboxylic acid benzylamide] | 7.67
COc1cc2nc(N3CCC(Cc4ccccc4)(C(=O)NC4Cc5cc(Cl)ccc5C4O)CC3)nc(O)c2cc1OC (stereo not drawn) [Example 65, 4-Benzyl-1-(4-hydroxy-6,7-dimethoxy-quinazolin-2-yl)-piperidine-4-carboxylic acid (5-chloro-1-hydroxy-indan-2-yl)-amide] | 7.29
COc1cc2nc(N3CCC(Cc4ccccc4)(C(=O)NCc4ccccc4)CC3)nc(O)c2cc1F [Example 88, 4-Benzyl-1-(6-fluoro-4-hydroxy-7-methoxy-quinazolin-2-yl)-piperidine-4-carboxylic acid benzylamide] | 8.03
COc1cc2nc(N3CCC(CC(C)C)(C(=O)NCc4ccccc4)CC3)nc(N)c2cc1OC [Example 70, 1-(4-Amino-6,7-dimethoxy-quinazolin-2-yl)-4-isobutyl-piperidine-4-carboyxlic acid benzylamide] | 7.19
COc1cc2nc(N3CCC(Cc4ccccc4)(C(=O)NCc4ccc(N(C)C)cc4)CC3)nc(N)c2cc1OC [Example 33, 1-(4-Amino-6,7-dimethoxy-quinazolin-2-yl)-4-benzyl-piperidine-4-carboxylic acid 4-dimethylamino-benzylamide] | 7.76
COc1cc2nc(N3CCC(Cc4ccccc4)(C(=O)NCc4cccnc4)CC3)nc(O)c2cc1OC [Example 2, 4-Benzyl-1-(4-hydroxy-6,7-dimethoxy-quinazolin-2-yl)-piperidine-4-carboxylic acid (pyridin-3-ylmethyl)-amide] | 7.18
CCOc1cc2nc(N3CCC(Cc4ccccc4)(C(=O)NCc4ccccc4)CC3)nc(O)c2cc1OC(F)F [Example 94, 4-Benzyl-1-(6-difluoromethoxy-7-ethoxy-4-hydroxy-quinazolin-2-yl)-piperidine-4-carboxylic acid benzylamide] | 8.08
COc1cc2nc(N3CCC(CC4CCC4)(C(=O)N(C)Cc4ccccc4)CC3)nc(O)c2cc1OC [Example 80, 4-Cyclobutylmethyl-1-(4-hydroxy-6,7-dimethoxy-quinazolin-2-yl)-piperidine-4-carboxylic acid benzyl-methyl-amide] | 8.12
O=C(NCc1ccccc1)C1(Cc2ccccc2)CCN(c2nc(O)c3ccc(OC(F)F)cc3n2)CC1 [Example 89, 4-Benzyl-1-(7-difluoromethoxy-4-hydroxy-quinazolin-2-yl)-piperidine-4-carboxylic acid benzylamide] | 7.94
COc1cc2nc(N3CCC(CC4CCC4)(C(=O)NC4CCCC4)CC3)nc(O)c2cc1OC [Example 78, 4-Cyclobutylmethyl-1-(4-hydroxy-6,7-dimethoxy-quinazolin-2-yl)-piperidine-4-carboxylic acid cyclopentylamide] | 7.18
O=C(NCc1ccccc1)C1(Cc2ccccc2)CCN(c2nc(O)c3ccc(C(F)(F)F)cc3n2)CC1 [Example 98, 4-Benzyl-1-(4-hydroxy-7-trifluoromethyl-quinazolin-2-yl)-piperidine-4-carboxylic acid benzylamide] | 8.21
COc1cc2nc(N3CCC(CC4CCC4)(C(=O)NCc4ccccc4)CC3)nc(O)c2cc1OC [Example 76, 4-Cyclobutylmethyl-1-(4-hydroxy-6,7-dimethoxy-quinazolin-2-yl)-piperidine-4-carboxylic acid benzylamide] | 8.24

Further lines, results first:

pKi | Structure (SMILES)
8.12 | COc1cc2nc(N3CCC(Cc4ccccc4)(C(=O)NC4Cc5ccccc5C4O)CC3)nc(N)c2cc1OC (stereo not drawn) [Example 38, 1-(4-Amino-6,7-dimethoxy-quinazolin-2-yl)-4-benzyl-piperidine-4-carboxylic acid (1-hydroxy-indan-2-yl)-amide]
7.95 | COc1cc2nc(N3CCC(Cc4ccccc4)(C(=O)NC4Cc5ccccc5C4)CC3)nc(O)c2cc1OC [Example 55, 4-Benzyl-1-(4-hydroxy-6,7-dimethoxy-quinazolin-2-yl)-piperidine-4-carboxylic acid indan-2-ylamide]
7.78 | CC[C@@H](NC(=O)C1(Cc2ccccc2)CCN(c2nc(N)c3cc(OC)c(OC)cc3n2)CC1)c1ccccc1 [Example 51, 1-(4-Amino-6,7-dimethoxy-quinazolin-2-yl)-4-benyzl-piperidine-4-carboxylic acid ((R)-1-phenyl-propyl)-amide]
8.27 | COc1cc2nc(N3CCC(Cc4ccccc4)(C(=O)NC4CCc5ccccc54)CC3)nc(N)c2cc1OC (stereo not drawn) [Example 44, 1-(4-Amino-6,7-dimethoxy-quinazolin-2-yl)-4-benzyl-piperidine-4-carboxylic acid indan-1-ylamide]
7.33 | COc1cc2nc(N3CCC(Cc4ccccc4)(C(=O)N4CCCC4c4ccccc4)CC3)nc(N)c2cc1OC (stereo not drawn) [Example 47, [1-(4-Amino-6,7-dimethoxy-quinazolin-2-yl)-4-benzyl-piperidin-4-yl]-(2-phenyl-pyrrolidin-1-yl)-methanone]
7.31 | COc1cc2nc(N3CCC(Cc4ccccc4)(C(=O)NC(CO)c4ccccc4)CC3)nc(N)c2cc1OC (stereo not drawn) [Example 41, 1-(4-Amino-6,7-dimethoxy-quinazolin-2-yl)-4-benzyl-piperidine-4-carboxylic acid (2-hydroxy-1-phenyl-ethyl)-amide]
8.44 | COc1cc2nc(N3CCC(Cc4ccccc4)(C(=O)N[C@H]4c5ccccc5C[C@@H]4O)CC3)nc(N)c2cc1OC [Example 39, 1-(4-Amino-6,7-dimethoxy-quinazolin-2-yl)-4-benzyl-piperidine-4-carboxylic acid ((1S,2S)-2-hydroxy-indan-1-yl)-amide]
7.28 | COc1cc2nc(N3CCC(Cc4ccccc4)(C(=O)NCc4ccc(Cl)c(Cl)c4)CC3)nc(N)c2cc1OC [Example 28, 1-(4-Amino-6,7-dimethoxy-quinazolin-2-yl)-4-benzyl-piperidine-4-carboxylic acid 3,4-dichloro-benzylamide]
7.20 | COc1cc2nc(N3CCC(Cc4ccccc4)(C(=O)N(C)C4Cc5ccccc5C4)CC3)nc(O)c2cc1OC [Example 57, 4-Benzyl-1-(4-hydroxy-6,7-dimethoxy-quinazolin-2-yl)-piperidine-4-carboxylic acid indan-2-yl-methyl-amide]
7.08 | COc1cc2nc(N3CCC(Cc4ccccc4)(C(=O)NC4CCc5ccccc5C4O)CC3)nc(O)c2cc1OC (stereo not drawn) [Example 68, 4-Benzyl-1-(4-hydroxy-6,7-dimethoxy-quinazolin-2-yl)-piperidine-4-carboxylic acid (1-hydroxy-1,2,3,4-tetrahydro-naphthalen-2-yl)-amide]
8.42 | COc1cc2nc(N3CCC(Cc4ccccc4)(C(=O)NC4CCc5ccccc5C4)CC3)nc(O)c2cc1OC (stereo not drawn) [Example 58, 4-Benzyl-1-(4-hydroxy-6,7-dimethoxy-quinazolin-2-yl)-piperidine-4-carboxylic acid (1,2,3,4-tetrahydro-naphthalen-2-yl)-amide]
